Experimental data published in patent US7351736B2, “Therapeutic compositions (II)” (priority 1998, dated 2008).
Read-outs that look alike come from different tables or passages of the source. Values belong to the compound of their own block, whether it stands above or below them.

Legend:
[1] = Oral administration of triolide in yoghurt to rats, plasma (R)-3-hydroxybutyrate; type: in vivo, Wistar rats; details: about 0.4 g triolide in yoghurt
Description: The ability of orally administered triolide to raise blood ketone levels was investigated as follows. The day before the experiment commenced, 12 Wistar rats weighing 316+10 g were placed in separate cages. They had no access to food for 15 hours prior to presentation with triolide containing compositions, but water was provided ad libitum.
On the morning of the experiment 0.64 g of triolide was mixed with 5 g Co-op brand Black Cherry yoghurt in separate feeding bowls for 9 of the rats. The remaining 3 rats were given 5 g of the yoghurt without the triolide as controls. The yoghurt containing bowls were placed in the cages and the rats timed while they ate. Two of the three control rats ate all the yoghurt and four of the […] ate approximately half the provided amount. The remaining six rats slept.
Control rats (n=2) were killed at 60 and 180 minutes after ingestion of yoghurt while triolide fed rats were killed at 80, 140, 150 and 155 minutes. Blood samples were taken for assay of (R)-3-hydroxybutyrate. Brains were funnel frozen and later extracted in perchloric acid and extracts neutralised and assayed. Blood levels of (R)-3-hydroxybutyrate were measured using a […] assay of Anal. Biochem (1983) 131, p478-482. […]

[2] = Rats fed triolide in 'Hob-Nob' biscuit, ill effects; type: in vivo; details: two rats fed approximately 1.5 g triolide each in 'Hob-Nob' biscuit; after two weeks
[3] = human, cited from earlier work
[4] = set-up: species or system rats; details: rat, in vivo, 30 min
Description: Control rats (n=2) were killed at 60 and 180 minutes after ingestion of yoghurt while triolide fed rats were killed at 80, 140, 150 and 155 minutes. Blood samples were taken for assay of (R)-3-hydroxybutyrate. Brains were funnel frozen and later extracted in perchloric acid and extracts neutralised and assayed. Blood levels of (R)-3-hydroxybutyrate were measured using a […] assay of Anal. Biochem (1983) 131, p478-482. 1.0 ml of a solution made up from 2-amino-2-methyl-1-propanol (100 mM pH 9.9, 0.094 g/10 ml), NAD^+ (30 mM, 0.199 g/10 ml) and EDTA (4 mM, 0.015 g/10 ml) was added to each of a number of cuvettes and 4 μl sample or (R)-3-hydroxybutyrate control.
The ability of orally administered (R)-3-hydroxybutyrate and the linear oligomers of Comparative examples 1 and 2 to raise blood ketone body levels was investigated as follows. Rats were fasted overnight and then gavaged with 100 μl/100 g bodyweight of 4M (R)-3-hydroxybutyrate brought to pH 7.4 using methyl glucamine. Plasma levels of (R)-3-hydroxybutyrate were measured at 0.62 mM after 30 minutes as compared to 3 mM when 9M (R)-3-hydroxybutyrate is used.
This procedure was repeated with 2M solutions of the mixtures (R)-3-hydroxybutyrate oligomers and their acetoacetyl esters described in Comparative Examples 1 and 2.

[5] = test system: primary hippocampal cultures; assay: Hippocampal microisland cultures with or without amyloid β1-42; type: cell-based, Wistar embryos; details: for neuronal cell number per microisland (mean): increase from a mean of 30
Description: The serum free medium used from 0 to day 4 contained Neurobasal medium with B27 supplement diluted 50 fold (Life Technology, Gaithersburg, Md.) to which was added: 0.5 mM L-glutamine, 25 μM Na L-glutamate, 100 U/ml penicillin and 100 μg/ml streptomycin. After day 4, DMEM/F12 medium containing 5 μM insulin, 30 nM 1-thyroxine, […] progesterone, 30 nM Na selenite 100 U/ml penicillin and 100 μg/ml streptomycin were used.
The primary hippocampal cultures were removed from Wistar embryos on day 18 and dispersed by gentle agitation in a pipette. The suspension was centrifuged at 1,500×g for 10 min and the supernatant discarded. The pellet was resuspended in new media to a final cell count of […]. Ten μl of this suspension was pipetted into the center of poly D-lysine coated culture wells and the plates incubated at 38° C. for 4 hrs and then 400 μl of fresh Neurobasal media was added. After 2 days of incubation, half of the media was exchanged for fresh media and the incubation continued for 2 more days. After day 4, the medium was changed with DMEM/F12 medium containing 5 μM insulin, 30 nM 1-thyroxine, 20 nM progesterone, 30 nM Na selenite 100 U/ml penicillin and 100 μg/ml streptomycin. […] These media were exchanged 2 days later (day 8) and the cells were fixed on day 10 and stained with anti MAP2 (Boehringer Manheim, Indianapolis Ind.) to visualize neurons and vimentin and GFAP (Boehringer) to visualize glial cells.

[6] = unesterified state, room temperature; cited from earlier work
[7] = liquid diet, glucose (47% of caloric content) substituted; cited from earlier work
[8] = presence of (R)-3-hydroxybutyrate, whether β1-42 was present or not

ill effects from ingestion of triolide [1]: no ill effects | ill effects [2]: no ill effects | melting point: 107 to 108 °C
SMILES: C[C@@H]1CC(=O)O[C@H](C)CC(=O)O[C@H](C)CC(=O)O1 [triolide, (R,R,R)-4,8,12-trimethyl-1,5,9-trioxadodeca-2,6,10-trione]

SMILES: C[C@@H](O)CC(=O)[O-].[Na+] [sodium salts of (R)-3-hydroxybutyrate]
toxicity on intravenous infusion ([3]; in vivo, iv): non-toxic | decreasing leucine oxidation ([3]; intravenous infusion): ineffective | glucose free fatty acids and glycerol concentration ([3]; intravenous infusion): capable of decreasing

plasma level of (R)-3-hydroxybutyrate [4]: 3000 µM | plasma level of (R)-3-hydroxybutyrate ([4]; pH 7.4): 620 µM
SMILES: C[C@@H](O)CC(=O)O [(R)-3-hydroxybutyrate, (R)-3-hydroxybutyric acid]
neuronal cell number per microisland (mean) ([5]; 8 mM (R)-3-hydroxybutyrate added to cultures containing amyloid β1-42): 70 cells per microisland | neuronal cell number per microisland (mean) ([5]; 8 mM (R)-3-hydroxybutyrate, no amyloid β1-42): 70 cells per microisland | length of axons [5, 8]: increased | number of dendritic outgrowths [5, 8]: increased

SMILES: CC(=O)CC(=O)O [acetoacetate]
half time of spontaneous decarboxylation to acetone [6]: about 30 days

SMILES: CC(O)CCO (racemic) [racemic 1,3 butandiol]
blood (R)-3-hydroxybutyrate concentration [7]: 0.98 mM | blood acetoacetate concentration [7]: 0.33 mM | rise of blood ketone concentration [7]: about 10 fold
